Test results: patent US8410153B2, “Naphthalene isoxazoline invertebrate pest control agents” (E.I. du Pont de Nemours and Company, priority 2007, dated 2013)

Legend:
Assay type in all cases: in vivo
[1] = tested on: western flower thrips (Frankliniella occidentalis); assay: Test E: control of western flower thrips on Soleil bean plant, contact and/or systemic; details: held 6 days
How it was run: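 5–7-day-old Soleil bean plants were sprayed at 250 or 50 ppm in 10% acetone/90% water with 300 ppm X-77 surfactant, three replicates. After drying 1 h, 22–27 adult thrips were added per unit. Mortality and plant damage were rated after 6 days at 25 °C and 45–55% RH.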

[2] = tested on: fall armyworm (Spodoptera frugiperda); assay: Test B: control of fall armyworm on corn (maize) plant, foliar spray; details: sprayed at 50 ppm
How it was run: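 4-5-day-old corn plants pre-infested with 10-15 1-day-old larvae on insect diet, then sprayed with compound at 50 ppm in 10% acetone/90% water with 300 ppm surfactant, three replicates. Held 6 days at 25° C, 70% RH; feeding damage assessed visually and mortality rated.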

[3] = tested on: diamondback moth (Plutella xylostella); assay: Test A: control of diamondback moth on radish plant, foliar spray; details: sprayed at 50 ppm, held 6 days
How it was run: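 Radish plants 12–14 days old, pre-infested with about 50 neonate larvae, sprayed at 50 ppm in 10% acetone/water with 300 ppm X-77 surfactant; three replicates. After 6 days at 25° C and 70% RH, feeding damage was scored visually and mortality counted.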

Measured: levels of control efficacy (20% or less feeding damage or 80% or more mortality)

CC(NC(=O)c1ccc(C2=NOC(c3cc(F)cc(C(F)(F)F)c3)(C(F)(F)F)C2)c2ccccc12)C(=O)NCC(F)(F)F (mixture of isomers) [Compound 139]
very good to excellent: [1]; sprayed at 50 ppm | [2] | [3]

CC(NC(=O)c1ccc(C2=NOC(c3cc(Br)cc(C(F)(F)F)c3)(C(F)(F)F)C2)c2ccccc12)C(=O)NCC(F)(F)F (mixture of isomers) [Compound 140]
very good to excellent: [1]; sprayed at 50 ppm | [2] | [3]

CNC(=O)C(C)NC(=O)c1ccc(C2=NOC(c3cc(Br)cc(C(F)(F)F)c3)(C(F)(F)F)C2)c2ccccc12 (mixture of isomers) [Compound 141]
very good to excellent: [1]; sprayed at 50 ppm | [2] | [3]

CCNC(=O)C(C)NC(=O)c1ccc(C2=NOC(c3cc(Br)cc(C(F)(F)F)c3)(C(F)(F)F)C2)c2ccccc12 (mixture of isomers) [Compound 142]
very good to excellent: [1]; sprayed at 50 ppm | [2] | [3]

CSCCNC(=O)c1ccc(C2=NOC(c3cccc(C(F)(F)F)c3)(C(F)(F)F)C2)c2ccccc12 (racemic) [Compound 34]
very good to excellent: [1]; sprayed at 50 ppm | [1]; sprayed at 250 ppm | [2] | [3]

O=C(CNC(=O)c1ccc(C2=NOC(c3cccc(C(F)(F)F)c3)(C(F)(F)F)C2)c2ccccc12)NCC(F)(F)F (racemic) [Compound 35]
very good to excellent: [1]; sprayed at 250 ppm | [2] | [3]

O=C(CNC(=O)c1ccc(C2=NOC(c3cc(C(F)(F)F)cc(C(F)(F)F)c3)(C(F)(F)F)C2)c2ccccc12)NCC(F)(F)F (racemic) [Compound 37]
very good to excellent: [1]; sprayed at 50 ppm | [1]; sprayed at 250 ppm | [2] | [3]

CC(C)NC(=O)CNC(=O)c1ccc(C2=NOC(c3cccc(C(F)(F)F)c3)(C(F)(F)F)C2)c2ccccc12 (racemic) [Compound 38]
very good to excellent: [1]; sprayed at 50 ppm | [1]; sprayed at 250 ppm | [2] | [3]

CS(=O)(=O)CCNC(=O)c1ccc(C2=NOC(c3cccc(C(F)(F)F)c3)(C(F)(F)F)C2)c2ccccc12 (racemic) [Compound 39]
very good to excellent: [1]; sprayed at 50 ppm | [1]; sprayed at 250 ppm | [2] | [3]

CC(C)NC(=O)CNC(=O)c1ccc(C2=NOC(c3cc(C(F)(F)F)cc(C(F)(F)F)c3)(C(F)(F)F)C2)c2ccccc12 (racemic) [Compound 40]
very good to excellent: [1]; sprayed at 50 ppm | [1]; sprayed at 250 ppm | [2] | [3]

CC(C)(O)CNC(=O)c1ccc(C2=NOC(c3cccc(C(F)(F)F)c3)(C(F)(F)F)C2)c2ccccc12 (racemic) [Compound 43]
very good to excellent: [1]; sprayed at 250 ppm | [2] | [3]

CCSCCCNC(=O)c1ccc(C2=NOC(c3cccc(C(F)(F)F)c3)(C(F)(F)F)C2)c2ccccc12 (racemic) [Compound 48]
very good to excellent: [1]; sprayed at 250 ppm | [2] | [3]

CS(=O)(=O)CCNC(=O)c1ccc(C2=NOC(c3cc(C(F)(F)F)cc(C(F)(F)F)c3)(C(F)(F)F)C2)c2ccccc12 (racemic) [Compound 49]
very good to excellent: [1]; sprayed at 50 ppm | [1]; sprayed at 250 ppm | [2] | [3]

CSCCNC(=O)c1ccc(C2=NOC(c3cc(Br)cc(C(F)(F)F)c3)(C(F)(F)F)C2)c2ccccc12 (racemic) [Compound 50]
very good to excellent: [1]; sprayed at 50 ppm | [1]; sprayed at 250 ppm | [2] | [3]

CCSCCNC(=O)c1ccc(C2=NOC(c3cccc(C(F)(F)F)c3)(C(F)(F)F)C2)c2ccccc12 (racemic) [Compound 51]
very good to excellent: [1]; sprayed at 50 ppm | [1]; sprayed at 250 ppm | [2] | [3]

O=C(CNC(=O)c1ccc(C2=NOC(c3cc(Br)cc(C(F)(F)F)c3)(C(F)(F)F)C2)c2ccccc12)NCC(F)(F)F (racemic) [Compound 52]
very good to excellent: [1]; sprayed at 50 ppm | [1]; sprayed at 250 ppm | [2] | [3]

CC(C)NC(=O)CNC(=O)c1ccc(C2=NOC(c3cc(Br)cc(C(F)(F)F)c3)(C(F)(F)F)C2)c2ccccc12 (racemic) [Compound 53]
very good to excellent: [1]; sprayed at 50 ppm | [1]; sprayed at 250 ppm | [2] | [3]

CS(=O)(=O)CCNC(=O)c1ccc(C2=NOC(c3cc(Br)cc(C(F)(F)F)c3)(C(F)(F)F)C2)c2ccccc12 (racemic) [Compound 54]
very good to excellent: [1]; sprayed at 50 ppm | [1]; sprayed at 250 ppm | [2] | [3]

CSCCNC(=O)c1ccc(C2=NOC(c3cc(C(F)(F)F)cc(C(F)(F)F)c3)(C(F)(F)F)C2)c2ccccc12 (racemic) [Compound 58]
very good to excellent: [1]; sprayed at 50 ppm | [1]; sprayed at 250 ppm | [2] | [3]

CSCCNC(=O)c1ccc(C2=NOC(c3cc(F)cc(C(F)(F)F)c3)(C(F)(F)F)C2)c2ccccc12 (racemic) [Compound 132]
very good to excellent: [1]; sprayed at 50 ppm | [1]; sprayed at 250 ppm | [2] | [3]

CS(=O)(=O)CCNC(=O)c1ccc(C2=NOC(c3cc(F)cc(C(F)(F)F)c3)(C(F)(F)F)C2)c2ccccc12 (racemic) [Compound 134]
very good to excellent: [1]; sprayed at 50 ppm | [1]; sprayed at 250 ppm | [2] | [3]

O=C(CNC(=O)c1ccc(C2=NOC(c3cc(F)cc(C(F)(F)F)c3)(C(F)(F)F)C2)c2ccccc12)NCC(F)(F)F (racemic) [Compound 135]
very good to excellent: [1]; sprayed at 250 ppm | [2] | [3]
